Experimental data: paper PMC7596181 (Frontiers in Immunology, 2020)

Assays:
[1] = target: T1, human TLR4 (Homo sapiens, UniProt O00206+Q9Y6Y9); test: SEAP assay, agonist dose response in human TLR4 HEK-Blue reporter cells; assay type: cell-based; parameters: host or cells: HEK-Blue (HEK293-derived) reporter cells; conditions: for agonist profile / EC50: human TLR4 HEK-Blue reporter cells; for EC50: read-out: EC50 for stimulation
Description: (§1) Human and mouse HEK-Blue reporter cells express human or mouse CD14, MD2, and TLR4 and secreted embryonic alkaline phosphatase (SEAP) under control of a promoter with binding sites for NFκB and AP-1 transcription factors (InvivoGen cat. nos. hkb-htlr4 and hkb-mtlr4). Cells were cultured as directed by the supplier, with the exception that Glutamax (ThermoFisher cat. no. 10569010) was used in place of L-glutamine, and TrypLE Express (ThermoFisher cat. no. 12605010) was used to release adherent cells for each passage. BALB/c mouse RAW264.7 and human THP-1 cells (ATCC® cat. nos. TIB-71 and TIB-202) were cultured in DMEM (4.5 g/L D-Glucose with 2 mM L-glutamine, 1 mM sodium pyruvate, 100 U/ml penicillin and 100 μg/ml streptomycin) supplemented with 10% heat-inactivated FBS. THP-1 cells were exposed to phorbol-12-myristate-13-acetate (PMA, InvivoGen cat no. tlrl-pma), 5 ng/ml, for 48 h prior to treatment with TLR4 agonists. Bone marrow-derived dendritic cells (BMDCs) were generated using C57BL/6 mouse femurs following the exact method published by Lutz et al. ([29]) except that 5 rather than 20 ng/ml recombinant GM-CSF was used to differentiate the DC. Human peripheral blood […] (PBMCs) were prepared from venous blood of healthy volunteers that had been collected using sodium citrate as anti-coagulant, 20 ml of which was mixed with 15 ml calcium- and magnesium-free Hank’s Balanced Saline Solution (HBSS) and then laid over 6 ml Histopaque®-1077 (1.077 g/ml, Sigma-Aldrich cat no. 10771) for density gradient centrifugation. The buffy coat layer was collected by pipette, washed once in HBSS, once in serum-free RPMI-1640, and then the PBMCs were resuspended in RPMI-1640 supplemented with 100 U/ml penicillin, 100 µg/ml streptomycin, 1 mM Na-Pyruvate, 2 mM L-glutamine, 50 μM βME and 10% heat-inactivated, male AB human serum for culture.
(§2) SEAP assays were performed to evaluate the extent to which TLR4 signaling was activated in HEK-Blue reporter cells expressing mouse or human receptors (CD14, MD2 and TLR4). Reporter cells were harvested when 70–80% confluent and plated in 96-well, flat-bottom microtiter plates either 1 h, one day or two days (5 × 10^4, 4 × 10^4 or 2 × 10^4 cells/well, respectively) before addition of TLR4 agonists for 18–24 h. Culture supernatants were transferred to U-bottom microtiter plates, centrifuged and transferred again to microtiter plates to ensure reporter cells were not present. The culture supernatants were added to QUANTI-BLUE substrate following instructions provided by the manufacturer (InvivoGen cat. nos. rep-qbl or rep-qbs) and incubated at 37°C in a tissue culture incubator. At successive intervals beginning 10 min after mixing the supernatants and substrate, the plates were placed in an Emax plate reader (Molecular Devices LLC) and optical density was measured at visible light wavelength […] (OD650). The shortest incubations at which dose response curve fits produced maximal R^2 ‘goodness of fit’ values, as determined by GraphPad Prism software, were used for analysis.
(§3) Pharmacological profiles of the TLR4 reagents were generated by performing dose response curves in one of four formats. 1) Agonist potency and efficacy (EC50 and height of dose plateau, respectively) were measured by diluting TLR4 reagents successively in complete culture medium [DMEM or RPMI supplemented with fetal bovine serum (FBS) or RPMI supplemented with human serum, depending on cell-type]. Half-log step dilutions were performed in 96-well, U-bottom microtiter plates using a multichannel pipette to transfer and mix the suspensions, with fresh tips used for each dilution step. One-tenth (20 μl) volumes from wells of the dilution plate were then transferred to wells containing cells that had been plated in nine-tenth volumes (180 μl) of culture medium. […]

[2] = target: T2, mouse TLR4 (Mus musculus, UniProt Q9JHF9+Q9QUK6); test: SEAP assay, agonist dose response in mouse TLR4 HEK-Blue reporter cells; assay type: cell-based; parameters: host or cells: HEK-Blue (HEK293-derived) reporter cells; conditions: for agonist profile: mouse TLR4 HEK-Blue reporter cells
T2 sequence (Q9QUK6 26-835): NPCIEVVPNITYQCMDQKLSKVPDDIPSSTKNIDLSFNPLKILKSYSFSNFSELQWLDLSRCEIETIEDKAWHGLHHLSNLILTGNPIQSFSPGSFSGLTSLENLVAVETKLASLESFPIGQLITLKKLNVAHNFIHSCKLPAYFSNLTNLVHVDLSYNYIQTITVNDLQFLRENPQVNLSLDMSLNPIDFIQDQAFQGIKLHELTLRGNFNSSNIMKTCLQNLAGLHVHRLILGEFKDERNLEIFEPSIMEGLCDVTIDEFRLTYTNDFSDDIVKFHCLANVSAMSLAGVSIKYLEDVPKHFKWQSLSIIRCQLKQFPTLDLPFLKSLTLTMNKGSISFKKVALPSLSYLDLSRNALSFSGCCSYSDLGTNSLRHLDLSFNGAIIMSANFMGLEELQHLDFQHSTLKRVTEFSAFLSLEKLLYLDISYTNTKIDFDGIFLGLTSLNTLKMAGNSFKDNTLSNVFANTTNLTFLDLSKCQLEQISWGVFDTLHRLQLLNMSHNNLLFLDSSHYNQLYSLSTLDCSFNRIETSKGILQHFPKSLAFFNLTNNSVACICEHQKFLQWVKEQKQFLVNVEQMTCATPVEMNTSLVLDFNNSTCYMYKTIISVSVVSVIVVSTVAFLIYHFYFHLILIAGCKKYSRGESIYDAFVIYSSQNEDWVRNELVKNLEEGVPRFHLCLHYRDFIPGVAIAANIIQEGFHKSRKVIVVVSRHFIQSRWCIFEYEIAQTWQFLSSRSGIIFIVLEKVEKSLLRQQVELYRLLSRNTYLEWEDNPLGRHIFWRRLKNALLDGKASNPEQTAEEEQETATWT
T2 sequence (Q9JHF9 19-160): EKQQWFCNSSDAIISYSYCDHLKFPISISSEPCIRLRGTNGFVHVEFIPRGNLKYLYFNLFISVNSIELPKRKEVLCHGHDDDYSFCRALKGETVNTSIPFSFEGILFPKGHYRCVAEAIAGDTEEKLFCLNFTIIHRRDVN
Description: as §1, §2, §3

[3] = target: T1, human TLR4; test: Inhibition curves (IC50 format): antagonist diluted in a fixed concentration of reference agonist, human TLR4 HEK-Blue SEAP; assay type: cell-based; parameters: host or cells: HEK-Blue (HEK293-derived) reporter cells; conditions: for inhibition of PHAD stimulation: fixed PHAD 1 μM, 22 h
Description: as §2
(§4) Pharmacological profiles of the TLR4 reagents were generated by performing dose response curves in one of four formats. 1) Agonist potency and efficacy (EC50 and height of dose plateau, respectively) were measured by diluting TLR4 reagents successively in complete culture medium [DMEM or RPMI supplemented with fetal bovine serum (FBS) or RPMI supplemented with human serum, depending on cell-type]. Half-log step dilutions were performed in 96-well, U-bottom microtiter plates using a multichannel pipette to transfer and mix the suspensions, with fresh tips used for each dilution step. One-tenth (20 μl) volumes from wells of the dilution plate were then transferred to wells containing cells that had been plated in nine-tenth volumes (180 μl) of culture medium. 2) Mixed agonist–antagonist potency and efficacy were measured by mixing a TLR4 agonist with a candidate antagonist at a fixed ratio and then performing half-log step dilutions before treating HEK reporter cells. Analysis of values obtained from SEAP assays of culture supernatants was then performed as described for preparations containing agonist alone, above. 3) Competitive vs allosteric or non-competitive antagonist type was evaluated by diluting a reference agonist within a fixed concentration of a candidate inhibitor in half-log steps, treating HEK reporter cells, performing SEAP assays and then analyzing the data as described for agonist assays, above. Competitive antagonists are characterized by values that reach the same dose plateau as for a reference, full agonist, while shifting potency to higher EC50 values. […] 4) Inhibitory potency (IC50) was measured by diluting antagonists within a fixed concentration of a reference agonist, treating HEK reporter cells and performing SEAP assays as described.

[4] = target: T1, human TLR4; parameters: method as in PMID 1918061; conditions: cited from earlier work
[5] = target: T2, mouse TLR4; parameters: method as in PMID 1918061; conditions: cited from earlier work
[6] = target: T1, human TLR4; test: Competitive vs non-competitive antagonist type: agonist diluted in a fixed concentration of inhibitor, human TLR4 HEK-Blue SEAP; assay type: cell-based; parameters: host or cells: HEK-Blue (HEK293-derived) reporter cells; conditions: fixed ML3 3 μM, ML4A 3 μM or Lipid IVa 0.1 μM; agonist PHAD or 3D-6A-PHAD diluted from 10 μM
Description: as §2
Pharmacological profiles of the TLR4 reagents were generated by performing dose response curves in one of four formats. 1) Agonist potency and efficacy (EC50 and height of dose plateau, respectively) were measured by diluting TLR4 reagents successively in complete culture medium [DMEM or RPMI supplemented with fetal bovine serum (FBS) or RPMI supplemented with human serum, depending on cell-type]. […] 2) Mixed agonist–antagonist potency and efficacy were measured by mixing a TLR4 agonist with a candidate antagonist at a fixed ratio and then performing half-log step dilutions before treating HEK reporter cells. […] 4) Inhibitory potency (IC50) was measured by diluting antagonists within a fixed concentration of a reference agonist, treating HEK reporter cells and performing SEAP assays as described.

[7] = target: T1, human TLR4; test: Mixed agonist-antagonist dose curves at fixed ratio, human TLR4 HEK-Blue SEAP; assay type: cell-based; parameters: host or cells: HEK-Blue (HEK293-derived) reporter cells
Description: as §2, §4

T1 sequence (O00206 24-839): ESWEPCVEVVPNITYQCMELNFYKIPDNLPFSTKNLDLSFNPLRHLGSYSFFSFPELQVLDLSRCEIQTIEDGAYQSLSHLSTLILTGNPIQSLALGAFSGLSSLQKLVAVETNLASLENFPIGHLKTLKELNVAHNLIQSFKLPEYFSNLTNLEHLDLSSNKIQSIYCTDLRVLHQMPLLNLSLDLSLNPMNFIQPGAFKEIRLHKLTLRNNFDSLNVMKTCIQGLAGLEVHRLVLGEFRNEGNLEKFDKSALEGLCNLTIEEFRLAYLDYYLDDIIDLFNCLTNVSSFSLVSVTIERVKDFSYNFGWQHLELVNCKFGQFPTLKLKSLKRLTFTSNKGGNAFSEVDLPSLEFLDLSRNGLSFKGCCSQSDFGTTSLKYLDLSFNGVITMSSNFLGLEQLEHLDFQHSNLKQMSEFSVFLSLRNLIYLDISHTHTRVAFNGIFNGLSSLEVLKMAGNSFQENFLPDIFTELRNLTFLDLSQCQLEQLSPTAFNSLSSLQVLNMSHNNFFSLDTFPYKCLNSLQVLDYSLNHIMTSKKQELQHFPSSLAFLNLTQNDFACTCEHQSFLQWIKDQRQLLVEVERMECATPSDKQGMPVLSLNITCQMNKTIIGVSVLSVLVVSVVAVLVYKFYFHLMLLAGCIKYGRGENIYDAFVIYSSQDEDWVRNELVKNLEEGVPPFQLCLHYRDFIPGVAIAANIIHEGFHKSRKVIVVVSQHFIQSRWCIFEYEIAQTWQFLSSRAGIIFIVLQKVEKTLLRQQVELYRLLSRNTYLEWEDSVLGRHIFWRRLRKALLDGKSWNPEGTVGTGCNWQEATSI
T1 sequence (Q9Y6Y9 17-160 limits assumed): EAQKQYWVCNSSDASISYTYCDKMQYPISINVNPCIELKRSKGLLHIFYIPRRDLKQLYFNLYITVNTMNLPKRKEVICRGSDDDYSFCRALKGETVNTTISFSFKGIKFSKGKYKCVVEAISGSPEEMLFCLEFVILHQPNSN

SMILES | agonist profile [1] | EC50 [1] [nM] | agonist profile [2] | inhibition of PHAD stimulation [3] | other results
CCCCCCCCCCCCCC(=O)O[C@H](CCCCCCCCCCC)CC(=O)N[C@H]1[C@H](OC[C@H]2OC(O)[C@H](NC(=O)C[C@H](O)CCCCCCCCCCC)[C@@H](OC(=O)C[C@H](O)CCCCCCCCCCC)[C@@H]2O)O[C@H](CO)[C@@H](OP(=O)(O)O)[C@@H]1OC(=O)C[C@@H](CCCCCCCCCCC)OC(=O)CCCCCCCCCCCCC (stereo partly shown) [PHAD, phosphorylated hexa-acyl disaccharide, reference compound] | weak yet full agonist of both mouse and human TLR4 | 30 | weak yet full agonist of both mouse and human TLR4 | – | –
CCCCCCCCCCCCCCCC(=O)OC(CCCCCCCCCCC)CC(=O)NC1C(O)OC(COC2OC(CO)C(OP(=O)(O)O)C(OC(=O)CC(CCCCCCCCCCC)OC(=O)CCCCCCCCCCCCC)C2NC(=O)CC(CCCCCCCCCCC)OC(=O)CCCCCCCCCCC)C(O)C1O (stereo not shown) [ML6] | weaker agonists of human TLR4 than of mouse TLR4 | – | – | only ML3 and ML4A showed inhibitory potential | –
CCCCCCCCCCCCCC(=O)O[C@H](CCCCCCCCCCC)CC(=O)O[C@@H]1[C@@H](NC(=O)C[C@@H](CCCCCCCCCCC)OC(=O)CCCCCCCCCCC)[C@H](OC[C@H]2O[C@H](OP(=O)(O)O)[C@H](NC(=O)C[C@H](O)CCCCCCCCCCC)[C@@H](OC(=O)C[C@H](O)CCCCCCCCCCC)[C@@H]2O)O[C@H](CO)[C@H]1OP(=O)(O)O [Lipid A, reference compound] | most potent of the agonists tested | – | most potent of the agonists tested | – | ED50 (95% CI) ([1]; human TLR4 reporter cells, stimulatory curve fit, Figure 3C): 1.0 (0.8-1.1) ng/mL; ED50 (95% CI) ([2]; mouse Tlr4 reporter cells, stimulatory curve fit, Figure 3C): 0.7 (0.5-0.9) ng/mL
CCCCCCCCCCCCCC(=O)OC(CCCCCCCCCCC)CC(=O)NC1C(O)OC(COC2OC(CO)C(OP(=O)(O)O)C(OC(=O)CC(CCCCCCCCCCC)OC(=O)CCCCCCCCCCCCC)C2NC(=O)CC(CCCCCCCCCCC)OC(=O)CCCCCCCCCCCCC)C(O)C1O (stereo not shown) [3D-6A-PHAD, reference compound] | – | 300 | – | – | –
CCCCCCCCCCC[C@@H](O)CC(=O)N[C@H]1[C@H](OC[C@H]2O[C@H](OP(=O)(O)O)[C@H](NC(=O)C[C@H](O)CCCCCCCCCCC)[C@@H](OC(=O)C[C@H](O)CCCCCCCCCCC)[C@@H]2O)O[C@H](CO)[C@@H](OP(=O)(O)O)[C@@H]1OC(=O)C[C@H](O)CCCCCCCCCCC [Lipid IVa, reference compound] | – | – | – | – | activity on human TLR4 [4]: competitive antagonist of human TLR4; activity on mouse TLR4 [5]: agonist of mouse TLR4; inhibition of 3D-6A-PHAD stimulation ([3]; fixed 3D-6A-PHAD 300 nM): functioned as inhibitors; IC50 ([3]; fixed PHAD 30 nM, 95% CI given): 0.19 nM; antagonist type [6]: competitive antagonist curve; effect on agonist dose curve in fixed-ratio mixture ([7]; mixed with PHAD at 1:60 or 1:20 antagonist:agonist): clearly flatted; effect on agonist dose curve in fixed-ratio mixture ([7]; mixed with PHAD at 1:180 antagonist:agonist): trending to a flattened curve
CCCCCCCCCCCCCC(=O)OC(CCCCCCCCCCC)CC(=O)OC1C(NC(=O)CC(CCCCCCCCCCC)OC(=O)CCCCCCCCCCC)C(OCC2OC(O)C(NC(=O)CC(O)CCCCCCCCCCC)C(O)C2O)OC(CO)C1OP(=O)(O)O (stereo not shown) [ML5A] | weaker agonists of human TLR4 than of mouse TLR4 | – | – | only ML3 and ML4A showed inhibitory potential | –
